# Experimental data taken from patent publication US8877748B2, “Heterocyclic fused anthraquinone derivatives, manufacturing method and pharmaceutical composition using thereof” (National Defense Medical Center, priority 2012, dated 2014).
# Where two headings read alike, the source gives them in different places.
# Assays:
# [1] = system: PC-3 prostate cancer cell line; assay: SRB assay cell viability, PC-3 prostate cancer cell line; assay type: cell-based, human
# [2] = system: EKVX; assay: NCI one-dose screening, non-small cell lung cancer EKVX; assay type: cell-based, human; conditions: 10 μM
# [3] = system: HOP-62; assay: NCI one-dose screening, non-small cell lung cancer HOP-62; assay type: cell-based, human; conditions: 10 μM
# [4] = system: NCI-H226; assay: NCI one-dose screening, non-small cell lung cancer NCI-H226; assay type: cell-based, human; conditions: 10 μM
# [5] = system: NCI-H23; assay: NCI one-dose screening, non-small cell lung cancer NCI-H23; assay type: cell-based, human; conditions: 10 μM
# [6] = system: NCI-H522; assay: NCI one-dose screening, non-small cell lung cancer NCI-H522; assay type: cell-based, human; conditions: 10 μM
# [7] = system: A549/ATCC; assay: NCI one-dose screening, non-small cell lung cancer A549/ATCC; assay type: cell-based, human; conditions: 10 μM
# [8] = system: COLO 205; assay: NCI one-dose screening, colon cancer COLO 205; assay type: cell-based, human; conditions: 10 μM
# [9] = system: HCC-2998; assay: NCI one-dose screening, colon cancer HCC-2998; assay type: cell-based, human; conditions: 10 μM
# [10] = system: HCT-116; assay: NCI one-dose screening, colon cancer HCT-116; assay type: cell-based, human; conditions: 10 μM
# [11] = system: HCT-15; assay: NCI one-dose screening, colon cancer HCT-15; assay type: cell-based, human; conditions: 10 μM
# [12] = system: HT29; assay: NCI one-dose screening, colon cancer HT29; assay type: cell-based, human; conditions: 10 μM
# [13] = system: SF-539; assay: NCI one-dose screening, CNS cancer SF-539; assay type: cell-based, human; conditions: 10 μM
# [14] = system: SNB-19; assay: NCI one-dose screening, CNS cancer SNB-19; assay type: cell-based, human; conditions: 10 μM
# [15] = system: SNB-75; assay: NCI one-dose screening, CNS cancer SNB-75; assay type: cell-based, human; conditions: 10 μM
# [16] = system: U251; assay: NCI one-dose screening, CNS cancer U251; assay type: cell-based, human; conditions: 10 μM
# [17] = system: LOX IMVI; assay: NCI one-dose screening, melanoma LOX IMVI; assay type: cell-based, human; conditions: 10 μM
# [18] = system: MALME-3M; assay: NCI one-dose screening, melanoma MALME-3M; assay type: cell-based, human; conditions: 10 μM
# [19] = system: M14; assay: NCI one-dose screening, melanoma M14; assay type: cell-based, human; conditions: 10 μM
# [20] = system: UACC-62; assay: NCI one-dose screening, melanoma UACC-62; assay type: cell-based, human; conditions: 10 μM
# [21] = system: UACC-257; assay: NCI one-dose screening, melanoma UACC-257; assay type: cell-based, human; conditions: 10 μM
# [22] = system: SK-MEL-2; assay: NCI one-dose screening, melanoma SK-MEL-2; assay type: cell-based, human; conditions: 10 μM
# [23] = system: SK-MEL-28; assay: NCI one-dose screening, melanoma SK-MEL-28; assay type: cell-based, human; conditions: 10 μM
# [24] = system: SK-MEL-5; assay: NCI one-dose screening, melanoma SK-MEL-5; assay type: cell-based, human; conditions: 10 μM
# [25] = system: IGROV1; assay: NCI one-dose screening, ovarian cancer IGROV1; assay type: cell-based, human; conditions: 10 μM
# [26] = system: OVCAR-5; assay: NCI one-dose screening, ovarian cancer OVCAR-5; assay type: cell-based, human; conditions: 10 μM
# [27] = system: OVCAR-8; assay: NCI one-dose screening, ovarian cancer OVCAR-8; assay type: cell-based, human; conditions: 10 μM
# [28] = system: SK-OV-3; assay: NCI one-dose screening, ovarian cancer SK-OV-3; assay type: cell-based, human; conditions: 10 μM
# [29] = system: 786-O; assay: NCI one-dose screening, renal cancer 786-O; assay type: cell-based, human; conditions: 10 μM
# [30] = system: CAKI-1; assay: NCI one-dose screening, renal cancer CAKI-1; assay type: cell-based, human; conditions: 10 μM
# [31] = system: ACHN; assay: NCI one-dose screening, renal cancer ACHN; assay type: cell-based, human; conditions: 10 μM
# [32] = system: SN12C; assay: NCI one-dose screening, renal cancer SN12C; assay type: cell-based, human; conditions: 10 μM
# [33] = system: TK-10; assay: NCI one-dose screening, renal cancer TK-10; assay type: cell-based, human; conditions: 10 μM
# [34] = system: UO-31; assay: NCI one-dose screening, renal cancer UO-31; assay type: cell-based, human; conditions: 10 μM
# [35] = system: RXF, 393; assay: NCI one-dose screening, renal cancer RXF, 393; assay type: cell-based, human; conditions: 10 μM
# [36] = system: MCF7; assay: NCI one-dose screening, breast cancer MCF7; assay type: cell-based, human; conditions: 10 μM
# [37] = system: MDA-MB-231/ATCC; assay: NCI one-dose screening, breast cancer MDA-MB-231/ATCC; assay type: cell-based, human; conditions: 10 μM
# [38] = system: MDA-MB-468; assay: NCI one-dose screening, breast cancer MDA-MB-468; assay type: cell-based, human; conditions: 10 μM
# [39] = system: NCl/ADR-RES; assay: NCI one-dose screening, breast cancer NCl/ADR-RES; assay type: cell-based, human; conditions: 10 μM; listed under Ovarian cancer
# [40] = system: BT-549; assay: NCI one-dose screening, breast cancer BT-549; assay type: cell-based, human; conditions: 10 μM
# [41] = system: T-47D; assay: NCI one-dose screening, breast cancer T-47D; assay type: cell-based, human; conditions: 10 μM
# [42] = system: MDA, -MB-435; assay: NCI one-dose screening, breast cancer MDA, -MB-435; assay type: cell-based, human; conditions: 10 μM; listed under Melanoma
# [43] = system: human tumor cell lines; assay: NCI one-dose screening, Mean / Delta / Range of growth percent over all tested cell lines; assay type: cell-based; conditions: 10 μM; for Growth Percent Delta: delta over all cell lines; for Growth Percent Mean: mean over all cell lines; for Growth Percent Range: range over all cell lines
# [44] = Homo sapiens, PC-3 prostate cancer cell line, Table II prints no unit, μM printed, read-out: SRB assay: 50% inhibition of cancer cell proliferation of sample concentration (IC50) of PC-3 prostate cancer cell line
molecule,measurement,setting,value
"O=C1c2ccccc2C(=O)c2c1cc(Sc1cccc(Cl)c1)c1nsnc21 [C37, 4-(3-chlorophenyl-thio)anthra[2,1-c][1,2,5] thiadiazol-6,11-dione]",IC50,[1]; [44],5.64 µM
same,Growth Percent EKVX,[2],43.65%
same,Growth Percent HOP-62,[3],42.12%
same,Growth Percent NCI-H226,[4],78.07%
same,Growth Percent NCI-H23,[5],−26.91%
same,Growth Percent NCI-H522,[6],7.18%
same,Growth Percent A549/ATCC,[7],107.48%
same,Growth Percent COLO 205,[8],105.98%
same,Growth Percent HCC-2998,[9],101.66%
same,Growth Percent HCT-116,[10],−67.84%
same,Growth Percent HCT-15,[11],17.97%
same,Growth Percent HT29,[12],102.17%
same,Growth Percent SF-539,[13],−52.72%
same,Growth Percent SNB-19,[14],56.88%
same,Growth Percent SNB-75,[15],26.08%
same,Growth Percent U251,[16],−69.50%
same,Growth Percent LOX IMVI,[17],−59.25%
same,Growth Percent MALME-3M,[18],−86.56%
same,Growth Percent M14,[19],−76.44%
same,Growth Percent UACC-62,[20],−64.98%
same,Growth Percent UACC-257,[21],−84.59%
same,Growth Percent SK-MEL-2,[22],−53.17%
same,Growth Percent SK-MEL-28,[23],24.96%
same,Growth Percent SK-MEL-5,[24],19.02%
same,Growth Percent IGROV1,[25],−13.50%
same,Growth Percent OVCAR-5,[26],108.55%
same,Growth Percent OVCAR-8,[27],−22.92%
same,Growth Percent SK-OV-3,[28],95.44%
same,Growth Percent 786-0,[29],−2.06%
same,Growth Percent CAKI-1,[30],−3.69%
same,Growth Percent ACHN,[31],−92.53%
same,Growth Percent SN12C,[32],−66.17%
same,Growth Percent TK-10,[33],53.81%
same,Growth Percent UO-31,[34],−74.79%
same,Growth Percent RXF 393,[35],−27.84%
same,Growth Percent MCF7,[36],−69.36%
same,Growth Percent MDA-MB-231/ATCC,[37],−29.08%
same,Growth Percent MDA-MB-468,[38],−79.19%
same,Growth Percent NCI/ADR-RES,[39],−15.13%
same,Growth Percent BT-549,[40],36.21%
same,Growth Percent T-47D,[41],−42.26%
same,Growth Percent MDA-MB-435,[42],−82.33%
same,Growth Percent Delta,[43],86.78%
same,Growth Percent Mean,[43],−5.75%
same,Growth Percent Range,[43],201.08%
"CCOc1cccc(Sc2cc3c(c4nsnc24)C(=O)c2ccccc2C3=O)c1 [C50, 4-(3-ethoxy-phenylthio)anthra[2,1-c] [1,2,5]thiadiazol-6,11-dione]",IC50,[1]; [44],> 15 µM
same,Growth Percent EKVX,[2],102.26%
same,Growth Percent HOP-62,[3],91.94%
same,Growth Percent NCI-H226,[4],90.47%
same,Growth Percent NCI-H23,[5],94.07%
same,Growth Percent NCI-H522,[6],98.19%
same,Growth Percent A549/ATCC,[7],111.48%
same,Growth Percent COLO 205,[8],106.49%
same,Growth Percent HCC-2998,[9],105.49%
same,Growth Percent HCT-116,[10],100.93%
same,Growth Percent HCT-15,[11],103.08%
same,Growth Percent HT29,[12],106.40%
same,Growth Percent SF-539,[13],93.72%
same,Growth Percent SNB-19,[14],103.22%
same,Growth Percent SNB-75,[15],77.25%
same,Growth Percent U251,[16],109.69%
same,Growth Percent LOX IMVI,[17],84.11%
same,Growth Percent MALME-3M,[18],108.70%
same,Growth Percent M14,[19],103.80%
same,Growth Percent UACC-62,[20],108.85%
same,Growth Percent UACC-257,[21],126.28%
same,Growth Percent SK-MEL-2,[22],102.98%
same,Growth Percent SK-MEL-28,[23],112.20%
same,Growth Percent SK-MEL-5,[24],106.82%
same,Growth Percent IGROV1,[25],94.67%
same,Growth Percent OVCAR-5,[26],116.60%
same,Growth Percent OVCAR-8,[27],112.41%
same,Growth Percent SK-OV-3,[28],99.36%
same,Growth Percent 786-0,[29],100.25%
same,Growth Percent CAKI-1,[30],84.23%
same,Growth Percent ACHN,[31],103.33%
same,Growth Percent SN12C,[32],104.76%
same,Growth Percent TK-10,[33],125.26%
same,Growth Percent UO-31,[34],76.69%
same,Growth Percent RXF 393,[35],118.35%
same,Growth Percent MCF7,[36],78.81%
same,Growth Percent MDA-MB-231/ATCC,[37],100.81%
same,Growth Percent MDA-MB-468,[38],108.00%
same,Growth Percent NCI/ADR-RES,[39],101.92%
same,Growth Percent BT-549,[40],103.88%
same,Growth Percent T-47D,[41],86.51%
same,Growth Percent MDA-MB-435,[42],106.07%
same,Growth Percent Delta,[43],25.00%
same,Growth Percent Mean,[43],101.69%
same,Growth Percent Range,[43],49.59%
"O=C1c2ccccc2C(=O)c2c1cc(Sc1ccccc1Cl)c1nsnc21 [C32, 4-(2-chloro-phenylthio)anthra[2,1-c] [1,2,5]thiadiazol-6,11-dione]",IC50,[1]; [44],> 15 µM
same,IC50,"[1]; Homo sapiens, PC-3 prostate cancer cells, read-out: IC50 in PC-3 prostate cancer cells (cell viability analysis)",> 15 µM
"Cc1ccc(Sc2cc3c(c4nsnc24)C(=O)c2ccccc2C3=O)cc1 [C44, 4-(4-methyl-phenyl-thio)anthra[2,1-c] [1,2,5]thiadiazol-6,11-dione]",IC50,[1]; [44],> 15 µM
"CC(C)c1ccc(Sc2cc3c(c4nsnc24)C(=O)c2ccccc2C3=O)cc1 [C26, 4-(4-isopropyl-phenyl-thio)anthra[2,1-c] [1,2,5]thiadiazol-6,11-dione]",IC50,[1]; [44],> 15 µM
"4-(phenethylthiol)anthra[2,1-c][1,2,5] thiadiazol-6,11-dione [C29]",IC50,"[1]; PC-3 prostate cancer cells, read-out: IC50 in PC-3 prostate cancer cells (cell viability analysis)",19 µM
"O=C1c2ccccc2C(=O)c2c1cc(Sc1ccc(F)cc1)c1nsnc21 [C28, 4-(4-fluoro-phenyl-thio)anthra[2,1-c] [1,2,5]thiadiazol-6,11-dione]",IC50,[1]; [44],6.7 µM
"Cc1cc(C)cc(Sc2cc3c(c4nsnc24)C(=O)c2ccccc2C3=O)c1 [C49, 4-(3,5-dimethyl-phenyl-thio)anthra[2,1-c] [1,2,5]thiadiazol-6,11-dione]",IC50,[1]; [44],> 15 µM
"CCCCNc1cc2c(c3nsnc13)C(=O)c1ccccc1C2=O [C12, 4-butylamino-anthra[2,1-c][1,2,5] thiadiazol-6,11-dione]",IC50,[1]; [44],1.76 µM
"O=C1c2ccccc2C(=O)c2c1cc(Sc1cccc(Br)c1)c1nsnc21 [C40, 4-(3-bromophenylthio)anthra[2,1-c][1,2,5] thiadiazol-6,11-dione]",IC50,[1]; [44],12.4 µM
"Cc1cccc(Sc2cc3c(c4nsnc24)C(=O)c2ccccc2C3=O)c1 [C47, 4-(m-phenylmethylthio)anthra[2,1-c] [1,2,5]thiadiazol-6,11-dione]",IC50,"[1]; PC-3 prostate cancer cell line, Table II prints no unit, μM printed, read-out: SRB assay: 50% inhibition of cancer cell proliferation of sample concentration (IC50) of PC-3 prostate cancer cell line",> 15 µM
